# Reference: US20170367330A1, “Method for stimulating induced insect resistance of rice” (ZHENJIANG UNIVERSITY, priority 2015, published 2017)
# Tests used:
# Assay type in all cases: in vivo
# [1] = system: contents of 4-hydroxybenzoic acid and γ-aminobutyric acid in the rice; assay: Induced mechanism: contents of defense compounds in rice after root treatment; conditions: 5 mg/L in nutrient solution, 72 hours after treating
# Experimental: According to the fourth preferred embodiment of the present invention, the applied p-Fluorophenoxyacetic acid has a concentration of 5 mg/L. The rice is cultivated through the nutrient solution, and planted by each individual rice plant; the p-Fluorophenoxyacetic acid is added into the nutrient solution of the rice until a final concentration is 5 mg/L, and another nutrient solution without adding the p-Fluorophenoxyacetic acid is adopted as a control group. The experiment is repeated for 5 times and conduced in a phytotron with a temperature of 28±2° C., a humidity of 70-80%, and 14 hours of illumination. […] The 4-hydroxybenzoic acid belongs to a phenolic acid defense compound, and the γ-aminobutyric acid belongs to a non-protein amino acid, which have direct toxicity effects on the insect pests and are able to influence a peripheral nervous system of the insects. Treating the rice with the p-Fluorophenoxyacetic acid is able to increase contents of the defense compounds, thereby generating a negative effect on the insect pests and increasing a resistance of the rice against the insect pests.
# [2] = system: Third-instar nymphs of the white-backed planthopper; assay: Contact toxicity, spotting on third-instar nymphs; conditions: for survival rates of the nymphs of the planthoppers: spotted 1 μL
# Experimental: In the experiment for measuring the contact toxicity of the p-Fluorophenoxyacetic acid on the nymphs of the rice planthoppers, the p-Fluorophenoxyacetic acids respectively having concentrations of 5 mg/L, 20 mg/L, and 50 mg/L are adopted, and distilled water not containing the p-Fluorophenoxyacetic acid is adopted as a control group. Third-instar nymphs of the white-backed planthopper, being narcotized by carbon dioxide, are spotted with the p-Fluorophenoxyacetic acid having the corresponding concentration or the distilled water (1 μL for each planthopper); after waking up, the planthoppers are fed on rice plants having an age of 30 days, wherein 15 planthoppers are fed on each rice plant; and the rice is placed in a phytotron with a temperature of 28±2° C., a humidity of 70-80% and 14 hours of illumination. The experiment is repeated for 10 times. Survival numbers of the nymphs of the planthoppers are observed and recorded respectively 24 hours and 48 hours after treatment.
# [3] = system: nymphs of the white-backed planthopper; assay: Root absorption treatment of rice, survival of white-backed planthopper nymphs
# Experimental: (§1) According to the first preferred embodiment of the present invention, the applied p-Fluorophenoxyacetic acids have concentrations of 1 mg/L and 10 mg/L. The rice is cultivated through the nutrient solution, and planted by each individual rice plant; the p-Fluorophenoxyacetic acid is added into the nutrient solution until a final concentration is 1 mg/L or 10 mg/L; and the nutrient solution without adding the p-Fluorophenoxyacetic acid is adopted as a control group. After treating with the p-Fluorophenoxyacetic acid for 12 hours, a special glass cover (with a diameter of 4 cm, a height of 8 cm, and 48 holes having a diameter of 0.8 mm uniformly provided on a wall) is placed on a stem of each individual rice plant, and 15 newly-hatched nymphs of the brown planthopper or the white-backed planthopper are introduced into each glass cover, wherein a top part of each glass cover is sealed by a circular sponge. The experiment is conducted in a phytotron with a temperature of 28±2° C., a humidity of 70-80% and 14 hours of illumination, survival numbers of the nymphs of the brown planthopper or the white-backed planthopper on each plant are recorded daily, and the experiment is repeated for 10 times.
# [4] = system: nymphs of the brown planthopper; assay: Spray treatment of rice stems and leaves, survival of brown planthopper nymphs; conditions: for survival rate of the brown planthopper: 8th day
# Experimental: (§2) According to the second preferred embodiment of the present invention, the applied p-Fluorophenoxyacetic acids have concentrations of 20 mg/L and 100 mg/L. The rice is cultivated through the nutrient solution, and planted by each individual rice plant; the p-Fluorophenoxyacetic acid is prepared with water to have a certain concentration (20 mg/L or 100 mg/L), and thereafter stems and leaves of the rice are treated with spraying through a small sprayer; and tap water is adopted as a control group. After drops on the stems and leaves of the rice are totally dry, a special glass cover (with a diameter of 4 cm, a height of 8 cm, and 48 holes having a diameter of 0.8 mm uniformly provided on a wall) is placed on a stem of each individual rice plant, and 15 newly-hatched nymphs of the brown planthopper or the white-backed planthopper are introduced into each glass cover, wherein a top part of each glass cover is sealed by a circular sponge. The experiment is conducted in a phytotron with a temperature of 28±2° C., a humidity of 70-80% and 14 hours of illumination, survival numbers of the nymphs of the brown planthopper and the white-backed planthopper on each plant are recorded daily, and the experiment is repeated for 10 times.
# [5] = system: nymphs of the brown planthopper; assay: Root absorption treatment of rice, survival of brown planthopper nymphs; conditions: for survival rate of the brown planthopper: 8th day
# Experimental: as §1
# [6] = system: nymphs of the white-backed planthopper; assay: Spray treatment of rice stems and leaves, survival of white-backed planthopper nymphs
# Experimental: as §2
# [7] = system: nymphs of the white-backed planthopper; assay: Stomach toxicity in planthopper artificial diet; conditions: for survival rate of the nymphs of the white-backed planthopper: artificial diet
# Excerpt: In order to exclude possible influences of the p-Fluorophenoxyacetic acid itself on a survival rate of nymphs of the rice planthoppers, the third preferred embodiment of the present invention measures stomach toxicity and contact toxicity of the p-Fluorophenoxyacetic acids having different concentrations on the nymphs of the rice planthoppers. In the experiment for measuring the stomach toxicity of the p-Fluorophenoxyacetic acid on the nymphs of the rice planthoppers, the p-Fluorophenoxyacetic acids, having concentrations of 5 mg/L, 20 mg/L and 50 mg/L, are respectively added into planthopper artificial diets, and another planthopper artificial diet not containing the p-Fluorophenoxyacetic acid is adopted as control. The planthopper artificial diets containing the p-Fluorophenoxyacetic acids of different concentrations are respectively wrapped by a Parafilm sealing film and then placed at two ends (20 μL at one end) of a glass two-way tube having a diameter of 4 cm and a height of 8 cm, and 15 newly-hatched nymphs of the white-backed planthopper are introduced into each tube; wherein the glass two-way tube, in which the planthopper artificial diet not containing the p-Fluorophenoxyacetic acid is placed, is adopted as a control group. All the glass two-way tubes are placed in a phytotron (with a temperature of 28° C. and 12 hours of illumination), the artificial diet in each tube is changed once a day, and the survival number of the nymphs of the white-backed planthopper in each tube is recoded daily. The experiment is repeated for 10 times.
# [8] = from the 2nd day after treating, FIG. 2
smiles,measurement,setting,value
O=C(O)COc1ccc(F)cc1 [p-Fluorophenoxyacetic acid],content of the 4-hydroxybenzoic acid of the experimental group versus the control group,[1],2.12 times
same,content of the γ-aminobutyric acid of the experimental group versus the control group,[1],2.86 times
same,survival rates of the nymphs of the planthoppers,"[2]; 5 mg/L, 24 hours after treating",92.0%
same,survival rates of the nymphs of the planthoppers,"[2]; 5 mg/L, 48 hours after treating",92.0%
same,survival rates of the nymphs of the planthoppers,"[2]; 20 mg/L, 24 hours after treating",93.1%
same,survival rates of the nymphs of the planthoppers,"[2]; 20 mg/L, 48 hours after treating",91.6%
same,survival rates of the nymphs of the planthoppers,"[2]; 50 mg/L, 24 hours after treating",92.0%
same,survival rates of the nymphs of the planthoppers,"[2]; 50 mg/L, 48 hours after treating",90.8%
same,contact toxicity on the planthoppers,"[2]; spotted 1 μL, 5, 20 and 50 mg/L",no contact toxicity
same,survival rate of the white-backed planthopper,"[3]; 1 mg/L in nutrient solution, 8th day",41.3%
same,survival rate of white-backed planthopper nymphs,"[3]; 10 mg/L in nutrient solution, 8th day",3.1%
same,"survival rates of the nymphs of the white-backed planthopper, course","[3]; from the 2nd day after treating, FIG. 1",decreased obviously
same,survival rate of the brown planthopper,[4]; 20 mg/L,60.3%
same,survival rate of the brown planthopper,[4]; 100 mg/L,19.2%
same,"survival rates of the nymphs of the brown planthopper, course",[4]; [8],decreased obviously
same,"survival rate of nymphs of the rice planthoppers, maximum decrease","[5]; general statement in the summary, rice planthoppers, concentration not given",below 10%
same,survival rate of the brown planthopper,"[5]; root absorption, 1 mg/L in nutrient solution",35.1%
same,survival rate of the brown planthopper,"[5]; root absorption, 10 mg/L in nutrient solution",1.5%
same,"survival rates of the nymphs of the brown planthopper, course","[5]; root absorption, from the 2nd day after treating, FIG. 1",decreased obviously
same,survival rate of the white-backed planthopper,"[6]; 20 mg/L, 8th day",66.1%
same,survival rate of the white-backed planthopper nymphs,"[6]; 100 mg/L, 8th day",23.2%
same,"survival rates of the nymphs of the white-backed planthopper, course",[6]; [8],decreased obviously
same,survival rate of the nymphs of the white-backed planthopper,"[7]; 5 mg/L, 2nd day",85.5%
same,survival rate of the nymphs of the white-backed planthopper,"[7]; 5 mg/L, 4th day",58.6%
same,survival rate of the nymphs of the white-backed planthopper,"[7]; 20 mg/L, 2nd day",87.4%
same,survival rate of the nymphs of the white-backed planthopper,"[7]; 20 mg/L, 4th day",54.3%
same,survival rate of the nymphs of the white-backed planthopper,"[7]; 50 mg/L, 2nd day",81.3%
same,survival rate of the nymphs of the white-backed planthopper,"[7]; 50 mg/L, 4th day",57.6%
same,stomach toxicity on the planthoppers,"[7]; artificial diet, 5, 20 and 50 mg/L",no stomach toxicity
